Measured values reported in patent US20030187007A1, “Inhibitors of protein kinase for the treatment of disease” (priority 2001, published 2003).

Experiments:
[1] = test system: HL-60(TB); experiment: In vitro tumor cell efficacy test (SRB), Leukemia; format: cell-based; settings: Homo sapiens, 72 hours
[2] = test system: 786-0; experiment: In vitro tumor cell efficacy test (SRB), Renal Cancer; format: cell-based; settings: Homo sapiens, 786-0, Renal Cancer, 72 hours
[3] = test system: SW-620; experiment: In vitro tumor cell efficacy test (SRB), Colon Cancer; format: cell-based; settings: Homo sapiens, SW-620, Colon Cancer, 72 hours
[4] = test system: MDA-N; experiment: In vitro tumor cell efficacy test (SRB), Breast Cancer; format: cell-based; settings: Homo sapiens, 72 hours
[5] = test system: BT-549; experiment: as above; format: cell-based; settings: Homo sapiens; BT-549, Breast Cancer, 72 hours
[6] = test system: IGROV1; experiment: In vitro tumor cell efficacy test (SRB), Ovarian Cancer; format: cell-based; settings: Homo sapiens, IGROV-1, 72 hours
[7] = test system: HCT-15; experiment: In vitro tumor cell efficacy test (SRB), Colon Cancer; format: cell-based; settings: Homo sapiens; HCT-15, Colon Cancer, 72 hours
[8] = test system: K-562; experiment: In vitro tumor cell efficacy test (SRB), Leukemia; format: cell-based; settings: Homo sapiens, K562, K-562, Leukemia, 72 hours
[9] = test system: UACC-62; experiment: In vitro tumor cell efficacy test (SRB), Melonoma; format: cell-based; settings: Homo sapiens, UACC-62, Melonoma, 72 hours
[10] = test system: M14; experiment: In vitro tumor cell efficacy test (SRB), Melonoma; format: cell-based; settings: Homo sapiens, 72 hours
[11] = test system: HCT-116; experiment: In vitro tumor cell efficacy test (SRB), Colon Cancer; format: cell-based; settings: Homo sapiens; HCT-116, Colon Cancer, 72 hours
[12] = test system: MCF7; experiment: In vitro tumor cell efficacy test (SRB), Breast Cancer; format: cell-based; settings: Homo sapiens, 72 hours
[13] = test system: SK-MEL-28; experiment: In vitro tumor cell efficacy test (SRB), Melonoma; format: cell-based; settings: Homo sapiens, SK-MEL-28, Melonoma, 72 hours
[14] = test system: MDA-MB-435; experiment: In vitro tumor cell efficacy test (SRB), Breast Cancer; format: cell-based; settings: Homo sapiens, MDA-MB-435, Breast Cancer, 72 hours
[15] = test system: NCI/ADR-RES; experiment: as above; format: cell-based; settings: Homo sapiens, 72 hours
[16] = test system: ACHN; experiment: In vitro tumor cell efficacy test (SRB), Renal Cancer; format: cell-based; settings: Homo sapiens, 72 hours
[17] = test system: HOP-92; format: cell-based; settings: Homo sapiens, HOP-92, Non-Small Cell Lung Cancer, 72 hours
[18] = test system: RXF 393; experiment: In vitro tumor cell efficacy test (SRB), Renal Cancer; format: cell-based; settings: Homo sapiens, RXF 393, Renal Cancer, 72 hours
[19] = test system: A498; experiment: as above; format: cell-based; settings: Homo sapiens, 72 hours
[20] = test system: SN12C; experiment: as above; format: cell-based; settings: Homo sapiens, 72 hours
[21] = test system: DU-145; experiment: In vitro tumor cell efficacy test (SRB), Prostate Cancer; format: cell-based; settings: Homo sapiens; DU-145, Prostate Cancer, 72 hours
[22] = test system: SF-539; experiment: In vitro tumor cell efficacy test (SRB), CNS Cancer; format: cell-based; settings: Homo sapiens; SF-539, CNS Cancer, 72 hours
[23] = test system: COLO 205; experiment: In vitro tumor cell efficacy test (SRB), Colon Cancer; format: cell-based; settings: Homo sapiens, COLO 205, Colon Cancer, 72 hours
[24] = test system: MOLT-4; experiment: In vitro tumor cell efficacy test (SRB), Leukemia; format: cell-based; settings: Homo sapiens, MOLT-4, Leukemia, 72 hours
[25] = test system: A549/ATCC; format: cell-based; settings: Homo sapiens, Non-Small Cell Lung Cancer, 72 hours
[26] = test system: U251; experiment: In vitro tumor cell efficacy test (SRB), CNS Cancer; format: cell-based; settings: Homo sapiens, U-251, 72 hours
[27] = test system: different cancer cell lines; experiment: In vitro tumor cell efficacy test (SRB), mean over all cell lines; format: cell-based; settings: Mean over all cell lines of the table
[28] = test system: NCI-H522; format: cell-based; settings: Homo sapiens; NCI-H522, Non-Small Cell Lung Cancer, 72 hours
[29] = test system: UO-31; experiment: In vitro tumor cell efficacy test (SRB), Renal Cancer; format: cell-based; settings: Homo sapiens, UO-31, Renal Cancer, 72 hours
[30] = test system: HCC-2998; experiment: In vitro tumor cell efficacy test (SRB), Colon Cancer; format: cell-based; settings: Homo sapiens, HCC-2998, Colon Cancer, 72 hours
[31] = test system: KM12; experiment: as above; format: cell-based; settings: Homo sapiens, 72 hours
[32] = test system: OVCAR-3; experiment: In vitro tumor cell efficacy test (SRB), Ovarian Cancer; settings: Homo sapiens, OVCAR-3, 72 h
[33] = test system: SNB-19; experiment: In vitro tumor cell efficacy test (SRB), CNS Cancer; format: cell-based; settings: Homo sapiens, SNB-19, CNS Cancer, 72 hours
[34] = test system: SK-OV-3; experiment: In vitro tumor cell efficacy test (SRB), Ovarian Cancer; format: cell-based; settings: Homo sapiens, SK-OV-3, Ovarian Cancer, 72 hours
[35] = read-out: Log (LC50) (the source's name) (converted)

Nc1nccc(-c2cc(-c3ccc(O)cc3)ccc2O)n1 [3-(2-Amino-pyrimidin-4-yl)-biphenyl-4,4′-diol]
79400 nM: CC50 [1, 35]
501 nM: GI50 [34]
3.16e-07 M: GI50 ([27]; read-out: log (GI50) (M), Mean (converted))
1260 nM: GI50 [30]
316 nM: GI50 [3] | GI50 [15] | GI50 [25]
158 nM: GI50 [11]
20000 nM: CC50 [33, 35]
6310 nM: CC50 [18, 35]
> 100000 nM: CC50 [2, 35] | CC50 [3, 35] | CC50 [4, 35] | LC50 [5] | CC50 [6, 35] | LC50 [7] | CC50 [8, 35] | CC50 [10, 35] | LC50 (concentration killing 50% of cells) [11] | LC50 [12] | CC50 [13, 35] | CC50 [14, 35] | CC50 [15, 35] | CC50 [16, 35] | CC50 [17, 35] | CC50 [19, 35] | CC50 [20, 35] | LC50 [21] | LC50 [22] | CC50 [23, 35] | CC50 [24, 35] | CC50 [26, 35] | LC50 [28] | CC50 [29, 35] | CC50 [30, 35] | CC50 [31, 35] | CC50 [34, 35]
12600 nM: CC50 [9, 35]
200 nM: GI50 [9] | GI50 [22] | GI50 [26] | GI50 [28] | GI50 [33]
1580 nM: GI50 [19]
398 nM: GI50 [8] | GI50 [10] | GI50 [17]
1000 nM: GI50 [18]
251 nM: GI50 [2] | GI50 [4] | GI50 [5] | GI50 [6] | GI50 [12] | GI50 [13] | GI50 [14] | GI50 [16] | GI50 [20] | GI50 [24] | GI50 [29]
126 nM: GI50 [1] | GI50 [7] | GI50 [31]
2.51e-07 M: GI50 ([32]; read-out: log (GI50) (M) (converted))
> 0.0001 M: CC50 ([27]; read-out: Log (LC50) (M), Mean (converted)) | CC50 ([32]; read-out: Log (LC50) (M) (converted))
7940 nM: GI50 [23]
794 nM: GI50 [21]
